Reference: PMC9621195 (Journal for Immunotherapy of Cancer, 2022)
pKd: −log10 of the molar value.

Target: cathepsin B (Homo sapiens, UniProt P07858)
Assay: microscale thermophoresis with CTSB-WT-EGFP in HCT-116 cell lysate
Type: binding

Compound `CC(C)(O)[C@@H]1CC[C@](C)([C@H]2[C@@H](O)C[C@@]3(C)[C@@H]4C[C@H](O)[C@H]5C(C)(C)[C@@H](O)CC[C@@]56C[C@@]46CC[C@]23C)O1` [CAG, Cycloastragenol] has a pKd of 7.58.
